Laboratory results as given in ChEMBL document CHEMBL3046027, “In vitro and in vivo antifungal activity of synthetic pure isothiocyanates against Sclerotinia sclerotiorum” (Pest Manag Sci, 2011).

What was measured:
Sclerotinia sclerotiorum [1] = assay: Antifungal activity against Sclerotinia sclerotiorum assessed as inhibition of mycelial growth in contact phase at 603 umol/l measured at 20 degC after 5 days; assay type: functional; conditions: 120 h, read-out: GI
Sclerotinia sclerotiorum [2] = assay: Antifungal activity against Sclerotinia sclerotiorum assessed as inhibition of germination in volatile phase at 335 umol/l measured at 20 degC after 5 days; assay type: functional; conditions: 120 h
Sclerotinia sclerotiorum [3] = assay: Fungitoxic activity in Sclerotinia sclerotiorum assessed as inhibition of mycelial growth in volatile phase at 469 umol/l measured at 20 degC after 5 days relative to control; assay type: functional; conditions: 120 h, read-out: GI
Sclerotinia sclerotiorum [4] = assay: Fungistatic activity in Sclerotinia sclerotiorum assessed as inhibition of carpogenic germination in volatile phase at 67 umol/l measured at 20 degC after 5 days relative to control; assay type: functional; conditions: 120 h
Sclerotinia sclerotiorum [5] = assay: Fungistatic activity in Sclerotinia sclerotiorum assessed as inhibition of carpogenic germination in volatile phase at 670 umol/l measured at 20 degC after 5 days relative to control; assay type: functional; conditions: 120 h
Sclerotinia sclerotiorum [6] = assay: Antifungal activity against Sclerotinia sclerotiorum assessed as inhibition of mycelial growth in volatile phase at 670 umol/l measured at 20 degC after 5 days; assay type: functional; conditions: 120 h, read-out: GI
Sclerotinia sclerotiorum [7] = assay: Antifungal activity against Sclerotinia sclerotiorum assessed as inhibition of germination in volatile phase at 670 umol/l measured at 20 degC after 5 days; assay type: functional; conditions: 120 h
Sclerotinia sclerotiorum [8] = assay: Antifungal activity against Sclerotinia sclerotiorum assessed as inhibition of mycelial growth in volatile phase at 34 umol/l measured at 20 degC after 5 days; assay type: functional; conditions: 120 h, read-out: GI
Sclerotinia sclerotiorum [9] = assay: Antifungal activity against Sclerotinia sclerotiorum assessed as inhibition of mycelial growth in volatile phase at 67 umol/l measured at 20 degC after 5 days; assay type: functional; conditions: 120 h, read-out: GI
Sclerotinia sclerotiorum [10] = assay: Antifungal activity against Sclerotinia sclerotiorum assessed as inhibition of mycelial growth in contact phase at 2011 umol/l measured at 20 degC after 5 days; assay type: functional; conditions: 120 h, read-out: GI
Sclerotinia sclerotiorum [11] = assay: Antifungal activity against Sclerotinia sclerotiorum assessed as inhibition of mycelial growth in contact phase at 1340 umol/l measured at 20 degC after 5 days; assay type: functional; conditions: 120 h, read-out: GI
Sclerotinia sclerotiorum [12] = assay: Fungistatic activity in Sclerotinia sclerotiorum assessed as inhibition of mycelial growth in contact phase measured at 20 degC after 5 days; assay type: functional, organism-based; conditions: 120 h
Sclerotinia sclerotiorum [13] = assay: Fungistatic activity in Sclerotinia sclerotiorum assessed as inhibition of mycelial growth in volatile phase measured at 20 degC after 5 days; assay type: functional, organism-based; conditions: 120 h
Sclerotinia sclerotiorum [14] = assay: Antifungal activity against Sclerotinia sclerotiorum assessed as inhibition of mycelial growth in contact phase at 469 umol/l measured at 20 degC after 5 days; assay type: functional; conditions: 120 h, read-out: GI
Sclerotinia sclerotiorum [15] = assay: Fungistatic activity in Sclerotinia sclerotiorum assessed as sclerotial viability measured at 20 degC after 5 days; assay type: functional, organism-based; conditions: 120 h
Sclerotinia sclerotiorum [16] = assay: Antifungal activity against Sclerotinia sclerotiorum assessed as inhibition of germination in volatile phase at 34 umol/l measured at 20 degC after 5 days; assay type: functional; conditions: 120 h
Sclerotinia sclerotiorum [17] = assay: In vivo antifungal Sclerotinia sclerotiorum in Pepper (Capsicum annuum L. cv. Sera Demre) assessed as inhibition of mycelial growth in volatile phase at 134 umol/L measured after 10 to 14 weeks; assay type: functional
Sclerotinia sclerotiorum [18] = assay: Antifungal activity against Sclerotinia sclerotiorum assessed as inhibition of mycelial growth in volatile phase at 469 umol/l measured at 20 degC after 5 days; assay type: functional; conditions: 120 h, read-out: GI
Sclerotinia sclerotiorum [19] = assay: Antifungal activity against Sclerotinia sclerotiorum assessed as inhibition of germination in volatile phase at 67 umol/l measured at 20 degC after 5 days; assay type: functional; conditions: 120 h
Sclerotinia sclerotiorum [20] = assay: Fungistatic activity in Sclerotinia sclerotiorum assessed as inhibition of carpogenic germination in volatile phase at 335 umol/l measured at 20 degC after 5 days relative to control; assay type: functional; conditions: 120 h
Sclerotinia sclerotiorum [21] = assay: Antifungal activity against Sclerotinia sclerotiorum assessed as inhibition of germination in volatile phase at 201 umol/l measured at 20 degC after 5 days; assay type: functional; conditions: 120 h
Sclerotinia sclerotiorum [22] = assay: Fungistatic activity in Sclerotinia sclerotiorum assessed as inhibition of mycelial growth in contact phase at 2011 umol/l measured at 20 degC after 5 days relative to control; assay type: functional; conditions: 120 h, read-out: GI
Sclerotinia sclerotiorum [23] = assay: Antifungal activity against Sclerotinia sclerotiorum assessed as inhibition of mycelial growth in volatile phase at 335 umol/l measured at 20 degC after 5 days; assay type: functional; conditions: 120 h, read-out: GI
Sclerotinia sclerotiorum [24] = assay: Antifungal activity against Sclerotinia sclerotiorum assessed as inhibition of mycelial growth in contact phase at 670 umol/l measured at 20 degC after 5 days; assay type: functional; conditions: 120 h, read-out: GI
Sclerotinia sclerotiorum [25] = assay: Fungistatic activity in Sclerotinia sclerotiorum assessed as viability in volatile phase at 335 umol/l measured at 20 degC after 5 days relative to control; assay type: functional; conditions: 120 h, read-out: GI
Sclerotinia sclerotiorum [26] = assay: Fungitoxic activity in Sclerotinia sclerotiorum assessed as viability in volatile phase at 670 umol/l measured at 20 degC after 5 days relative to control; assay type: functional; conditions: 120 h, read-out: GI
Sclerotinia sclerotiorum [27] = assay: In vivo antifungal Sclerotinia sclerotiorum in Pepper (Capsicum annuum L. cv. Sera Demre) assessed as inhibition of mycelial growth in volatile phase at 67 umol/L measured after 10 to 14 weeks; assay type: functional
Sclerotinia sclerotiorum [28] = assay: Fungistatic activity in Sclerotinia sclerotiorum assessed as inhibition of carpogenic germination in volatile phase at 34 umol/l measured at 20 degC after 5 days relative to control; assay type: functional; conditions: 120 h

`S=C=NCCc1ccccc1` [PHENETHYLISOTHIOCYANATE] was tested, and the inhibition of growth at 603 µM (Sclerotinia sclerotiorum [1]) was 24.3%, the inhibition at 335 µM (Sclerotinia sclerotiorum [2]) was 100% and the inhibition of growth at 469 µM (Sclerotinia sclerotiorum [3]) was 100%. The inhibition at 67 µM (Sclerotinia sclerotiorum [4]) was 55%, the inhibition at 670 µM (Sclerotinia sclerotiorum [5]) was 82.5% and the inhibition of growth at 670 µM (Sclerotinia sclerotiorum [6]) was 100%. It also gave an inhibition at 670 µM (Sclerotinia sclerotiorum [7]) of 100%, an inhibition of growth at 34 µM (Sclerotinia sclerotiorum [8]) of 24.3% and an inhibition of growth at 67 µM (Sclerotinia sclerotiorum [9]) of 42.7%. The inhibition of growth at 2011 µM (Sclerotinia sclerotiorum [10]) was 100%, the inhibition of growth at 1340 µM (Sclerotinia sclerotiorum [11]) was 92.5% and the EC50 (Sclerotinia sclerotiorum [12]) was 650 µM. The EC50 (Sclerotinia sclerotiorum [13]) was 144 µM, the inhibition of growth at 469 µM (Sclerotinia sclerotiorum [14]) was 5% and the EC50 (Sclerotinia sclerotiorum [15]) was 114 µM. It also gave an inhibition at 34 µM (Sclerotinia sclerotiorum [16]) of 6.7%, an inhibition in vivo at 134 µM (Sclerotinia sclerotiorum [17]) of 76.7% and an inhibition of growth at 469 µM (Sclerotinia sclerotiorum [18]) of 64%. For the same compound, the inhibition at 67 µM (Sclerotinia sclerotiorum [19]) was 26.7%, the inhibition at 335 µM (Sclerotinia sclerotiorum [20]) was 57.5% and the inhibition at 201 µM (Sclerotinia sclerotiorum [21]) was 66.7%. The inhibition of growth at 2011 µM (Sclerotinia sclerotiorum [22]) was 100%, the inhibition of growth at 335 µM (Sclerotinia sclerotiorum [23]) was 51.3% and the inhibition of growth at 670 µM (Sclerotinia sclerotiorum [24]) was 59.7%. It also gave an inhibition of growth at 335 µM (Sclerotinia sclerotiorum [25]) of 100%, an inhibition of growth at 670 µM (Sclerotinia sclerotiorum [26]) of 100% and an inhibition in vivo at 67 µM (Sclerotinia sclerotiorum [27]) of 70%. The inhibition at 34 µM (Sclerotinia sclerotiorum [28]) was 12.5%.
